This experiment has as its system filaggrin expression in normal human keratinocytes (NHEKs). Kind of experiment: Filaggrin expression in normal human keratinocytes in culture (in situ immunolabelling, fluorescence relative to number of nuclei). The format is cell-based. To be noted: for change in expression of filaggrin by the keratinocytes relative to the control / filaggrin expression, % relative to the control: NHEKs; for change in expression of filaggrin by the keratinocytes relative to the control: 144 hours; for filaggrin expression, % relative to the control: 144 hours incubation, n=3, control complete SFM medium = 100. How it is done:
The in vitro effect of gingerone (compound 1, the chemical formula of which is given above) on keratinocyte differentiation is studied. The expression and the location of the marker of filaggrin differentiation are especially studied in keratinocytes in culture which thus makes it possible to evaluate the capacity of this compound to increase the differentiation of these cells. Normal human keratinocytes (NHEKs) were cultured at 37° C. and 5% CO2 for 24 h in a complete SFM medium until moderate confluence was obtained. A complete SFM medium is an SFM culture medium supplemented with pituitary extract (25 μg/ml), EGF (0.25 ng/ml) and gentamicin (25 μg/ml). […] The keratinocytes were then incubated for 144 hours. The treatments were carried out in triplicate (n=3). At the end of the incubation, the culture medium was removed and the cells were […], fixed, permeabilized then labelled with the primary antibody targeted against the filaggrin protein of interest (in situ immunolabelling). […] At the same time, the nuclei of the cells were stained with Hoechst 33258 (bisbenzimide). Image acquisition was carried out using an INCell AnalyzerTM1000 machine. The labels were quantified by measuring the fluorescence intensity of the proteins relative to the number of nuclei identified by the Hoechst product.

SMILES strings stand for the structures. Marks after values point to notes of the source that are not given here.

`COc1cc(CCC(C)=O)ccc1O` [Gingerone]: where the note is “2 μg/ml”, the “change in expression of filaggrin by the keratinocytes relative to the control” value was “+33%” and the “filaggrin expression, % relative to the control” value was 133* %. Moreover, under “20 μg/ml”, the “change in expression of filaggrin by the keratinocytes relative to the control” value is recorded as “+51%” and the “filaggrin expression, % relative to the control” value was 151* %. Further, the “effect on expression of the filaggrin protein (in words)” value (normal human epidermal keratinocytes) is “significantly and dose-dependently increases the expression of the filaggrin protein”.
As for `[Ca+2].[Cl-].[Cl-]` [CaCl2, calcium chloride, reference compound], the “filaggrin expression, % relative to the control” value (1.5 mM) is given as 158** %. For the same compound, where the note is “calcium chloride treatment (1.5 mM in Table 1)”, the “change in expression of filaggrin by the keratinocytes relative to the control” value is “+58%”.
For the compound `CC1=C(/C=C/C(C)=C/C=C/C(C)=C/C(=O)O)C(C)(C)CCC1` [Retinoic acid, retinoic acid, reference compound], the “filaggrin expression, % relative to the control” value (10^−7 M) is recorded as 3** %. In addition, under “retinoic acid treatment (10^−7 M in Table 1)”, the “change in expression of filaggrin by the keratinocytes relative to the control” value was −97%.

Source of the values: US11602496B2, “Use of gingerone or derivatives thereof for reducing or delaying the signs of skin ageing” (L'OREAL, priority 2011, dated 2023).
